A short description of series [1]: Solubility of compound 5 in aqueous culture media. The class given is physicochemical. To be noted: liquid lactose minimal medium culture. From the text: The fungal strain used to over-produce compound 5 contains genetic alterations as described in Table 1. The native promoter of afoA, the gene that codes for the pathway-specific transcription activator of the asperfuranone pathway was replaced with the inducible alcohol dehydrogenase promoter, alcA. The afoD gene, that codes for the hydroxylase in the asperfuranone pathway, was deleted to enable the accumulation of intermediate, compound 5.^11 It should be noted that the afo cluster is silent under normal laboratory growing conditions. The wild type strain, thus, produced non-detectable compound 5 and asperfuranone (4).

Series [2] concerns the target T1, soybean LOX-1 (Lipoxygenase-1, 15-Lipoxygenase) (Glycine max, UniProt P08170).
T1 construct: purchased Cayman Chemical #60712
T1 sequence (P08170 1-839): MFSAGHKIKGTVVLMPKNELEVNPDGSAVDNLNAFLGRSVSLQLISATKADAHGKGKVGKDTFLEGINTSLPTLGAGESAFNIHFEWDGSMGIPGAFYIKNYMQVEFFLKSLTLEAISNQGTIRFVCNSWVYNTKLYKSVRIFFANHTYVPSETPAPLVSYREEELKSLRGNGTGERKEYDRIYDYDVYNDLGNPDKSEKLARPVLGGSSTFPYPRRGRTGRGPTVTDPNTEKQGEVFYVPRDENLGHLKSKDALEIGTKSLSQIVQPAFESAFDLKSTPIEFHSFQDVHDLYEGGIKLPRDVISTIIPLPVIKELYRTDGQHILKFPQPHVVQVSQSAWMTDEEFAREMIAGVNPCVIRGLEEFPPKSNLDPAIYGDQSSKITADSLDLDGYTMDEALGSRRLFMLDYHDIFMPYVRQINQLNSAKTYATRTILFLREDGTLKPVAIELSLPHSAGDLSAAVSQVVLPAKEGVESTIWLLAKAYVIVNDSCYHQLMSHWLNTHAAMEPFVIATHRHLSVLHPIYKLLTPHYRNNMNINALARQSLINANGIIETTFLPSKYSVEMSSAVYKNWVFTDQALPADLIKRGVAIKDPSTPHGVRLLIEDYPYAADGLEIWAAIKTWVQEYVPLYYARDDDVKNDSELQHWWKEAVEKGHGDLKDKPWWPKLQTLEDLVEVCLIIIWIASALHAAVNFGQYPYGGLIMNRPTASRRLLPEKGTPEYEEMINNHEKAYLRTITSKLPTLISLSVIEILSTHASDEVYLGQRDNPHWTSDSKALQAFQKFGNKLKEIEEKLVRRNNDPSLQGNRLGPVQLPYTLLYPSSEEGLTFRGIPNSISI
Description: Soybean lipoxygenase-1 (LOX-1) inhibition assay, spectrophotometric at 234 nm, linoleic acid substrate. The class given is biochemical. To be noted: for LOX-1 inhibition (result in words): screening for soybean LOX-1 inhibition. Here is the method:
^1H and ^13C NMR spectra were recorded on a Varian Mercury Plus 400 spectrometer. Chemical shifts are reported in ppm relative to CDCl3 (^1H, δ 7.26; ^13C, δ 77.0) or acetone-d6 (^1H, δ 2.05; ^13C, δ 30.0, 206.0). ^1H NMR data is reported as: chemical shift, multiplicity (s=singlet, d=doublet, t=triplet, q=quartet, m=multiplet), coupling constant, and integration. Infrared spectra were recorded on a JASCO FTIR-4100. Infrared frequencies are reported in reciprocal centimeters. High resolution electrospray ionization mass was obtained on an Agilent 6210 time of flight LC-MS. Reactions were monitored by analytical thin-layer chromatography on EMD silica gel-60^F254 plates. Flash chromatography was performed on EMD silica gel 60, 70-230 mesh. All reagents were used without further purification unless otherwise noted. Reagents were purchased from Sigma-Aldrich, and Alfa Aesar. Diethyl ether (anhydrous) and 1,2-dichloroethane (anhydrous) were used directly from the bottle. Water sensitive reactions were performed under a nitrogen atmosphere with oven-dried glassware. Kinetic experiments for lipoxygenase inhibition were recorded on a Shimadzu UV-2401PC at 26° C. Materials for the lipoxygenase assay such as linoleic acid, 15-Lipoxygenase (soybean PO, and (+)-sclerotiorin were purchased from Cayman Chemicals.
The enzyme assay was performed according to Axelrod et. al.^18 Each solution was prepared and measured at room temperature. Enzyme kinetics was measured on a Shimadzu UV-2401PC at a wavelength of 234 nm in a quartz cuvette (FIG. 6). For the assay, the linoleic acid substrate was prepared by mixing 20 μL linoleic acid (Cayman Chemical #760716) with 20 μL KOH (Cayman Chemical #760713) and 40 μL double distilled water. Lipoxygenase-1 (Cayman Chemical #60712) was diluted from original stock concentration to a concentration of 100 U/mL in the cuvette. The semisynthetic azaphilones were prepared as stock concentrations in dimethylsulfoxide (DMSO) from 20 μM to 10 mM; 54, was added to the assay mixture to give the desired final concentration of the inhibitor with 1% of DMSO in the assay.
The spectrophotometric assay is based on monitoring the reaction, catalyzed by LOX-1 to convert linoleic acid (L) to the hydroperoxide (LOOH), at 234 nm. […] The reaction is initiated when the non-heme iron of LOX-1 in the ferric state is reduced by the substrate L. While in the enzyme-substrate complex, L is oxidized and converted to the peroxide free radical (LOO.), and subsequently released from the enzyme as LOOH Inhibitors can interfere in the process in several different ways to prevent the generation of LOOH by the chelation of iron, removal of oxygen or prevention of free radical formation.
Prior to measurements, a sample with buffer was used as a blank. In a quartz cuvette, each sample was prepared with 482.54, 0.2 M borate buffer (at a pH of 9.0) mixed with 54, inhibitor and 54, substrate by pipetting the solution. The cuvette was placed in the spectrophotometer and measured for 120 seconds and then rapidly 7.54, lipoxygenase-1 was added and mixed to initiate the reaction. Measurements were recorded every 30 seconds for 7.5 minutes.
Inhibition of an enzyme at 50% can be experimentally measured by monitoring enzyme kinetics. A kinetic study generates a curve where the slope provides the initial velocity (Vo) of the enzyme. For each sample with different inhibitor concentrations the initial velocity was derived from a linear segment between […]. The absorbance was used directly and not converted into concentration units. […] The concentration of inhibitor at which 50% inhibition occurred (as measured by change in Vo) was reported as the IC50.

Series [3] deals with T1, soybean LOX-1 (Lipoxygenase-1, 15-Lipoxygenase). To be noted: literature report (ref. 5); cited from earlier work.
Where [4] appears, read: soybean LOX-1, linoleic acid, 0.2 M borate buffer pH 9.0, 1% DMSO, 234 nm, read-out: Lipoxygenase-1 Inhibitory Activity IC50 (μM) ± s.d.

“Also recorded” adds a separate entry of the source. Like-named read-outs stand apart in the source and are kept apart here. Where only a bound is given, the exact number is not on record here.

One may read the IC50 as the concentration that gives 50% inhibition. For `CC[C@H](C)/C=C(C)/C=C/C(=O)Cc1cc(O)c(C)c(O)c1C=O` (stereo in doubt) [Compound 5, 2,4-dihydroxy-6-(5,7-dimethyl-2-oxo-trans-3-trans-5-nonadienyl)-3-methylbenzaldehyde], the “Solubility in aqueous media (in words)” value in series [1] is “poorly dissolved in aqueous media”. In addition, the IC50 in series [2] (setting [4]) worked out at 97.2 ± 2 µM.
Consider `CC[C@H](C)/C=C(C)/C=C/C1=CC2=C(Cl)C(=O)[C@](C)(OC(C)=O)C(=O)C2=CO1` [Compound 1, (+)-sclerotiorin, reference compound], for which the “LOX-1 inhibition of (+)-sclerotiorin according to a report” value in series [3] is “potent LOX-1 inhibition”. Moreover, in series [2] (setting [4]), the half-maximal inhibitory concentration (IC50) amounted to 7.8 ± 2.4 µM.
In the case of `CC[C@H](C)/C=C(C)/C=C/C1=CC2=CC(=O)C(C)(OC(C)=O)C(=O)C2=CO1` (stereo partly drawn) [Compound 7], the “LOX-1 inhibition (result in words)” value in series [2] is recorded as “highest lipoxgyenase-1 inhibition; also recorded: most effective”. Also, the half-maximal inhibitory concentration (IC50) in series [2] (setting [4]) turned out to be 4.9 ± 3.3 µM.
`CC[C@H](C)/C=C(C)/C=C/C1=CC2=C(Cl)C(=O)C(C)(OC(C)=O)C(=O)C2=CO1` (stereo partly drawn) [Compound 8]: the IC50 in series [2] (setting [4]) worked out at 2.3 ± 0.9 µM.
With `CC[C@H](C)/C=C(C)/C=C/C1=CC2=C(Br)C(=O)C(C)(OC(C)=O)C(=O)C2=CO1` (stereo partly drawn) [Compound 9], the 50% inhibitory concentration (IC50) in series [2] (setting [4]) came out at 6.8 ± 4.5 µM.
With `CC[C@H](C)/C=C(C)/C=C/C1=CC2=C(I)C(=O)C(C)(OC(C)=O)C(=O)C2=CO1` (stereo partly drawn) [Compound 10], the concentration for half-maximal inhibition (IC50) in series [2] (setting [4]) was 17.4 ± 8.1 µM.
Take `CC[C@H](C)/C=C(C)/C=C/C1=CC2=CC(=O)C(C)(O)C(=O)C2=CO1` (stereo partly drawn) [Compound 11]: the IC50 in series [2] (setting [4]) was 10.7 ± 6.6 µM.
`CC[C@H](C)/C=C(C)/C=C/C1=CC2=C(Cl)C(=O)C(C)(O)C(=O)C2=CO1` (stereo partly drawn) [Compound 12] had a concentration for half-maximal inhibition (IC50) in series [2] of 7.9 ± 3.9 µM.
In the case of `CC[C@H](C)/C=C(C)/C=C/C1=CC2=C(Br)C(=O)C(C)(O)C(=O)C2=CO1` (stereo partly drawn) [Compound 13], the “LOX-1 inhibition (result in words)” value in series [2] is on record as “highest lipoxgyenase-1 inhibition; also recorded: most effective”. Besides, the half-inhibitory concentration (IC50) in series [2] (setting [4]) worked out at 3.2 ± 1.5 µM.
Take `CC[C@H](C)/C=C(C)/C=C/C1=CC2=C(I)C(=O)C(C)(O)C(=O)C2=CO1` (stereo partly drawn) [Compound 14]: in series [2] (setting [4]), the 50% inhibitory concentration (IC50) worked out at 19.6 ± 11.9 µM.
With `CCOC(=O)C=C1C2=COC(/C=C/C(C)=C/[C@@H](C)CC)=CC2=CC(=O)C1(C)O` (stereo partly drawn) [Compound 15], the half-maximal inhibitory concentration (IC50) in series [2] (setting [4]) was above 100 µM.
The same measure, in the same setting: the value for `CCOC(=O)C=C1C2=COC(/C=C/C(C)=C/[C@@H](C)CC)=CC2=C(Br)C(=O)C1(C)O` (stereo partly drawn) [Compound 16] was above 100 µM; that for `CCOC(=O)C=C1C2=COC(/C=C/C(C)=C/[C@@H](C)CC)=CC2=C(I)C(=O)C1(C)O` (stereo partly drawn) [Compound 17] was above 100 µM.
For the molecule asperfuranone [Compound 4], in series [2] (setting [4]), the 50% inhibitory concentration (IC50) is above 100 µM.

These data come from patent US20130197071A1, “PRODUCTION OF LIPOXYGENASE INHIBITORS VIA FUNGAL BIOSYNTHETIC PATHWAY” (UNIVERSITY OF SOUTHERN CALIFORNIA, priority 2012, published 2013).
